Legend:
EAE in SJL mice = assay: SJL mouse relapsing-remitting EAE model (PLP/CFA, PT), clinical score; type: in vivo; details: TriDAP 100 μg/mouse every 2 days from day 12, vs PBS, mean of 5-6 mice per group
Description: EAE (experimental autoimmune encephalomyelitis) was induced in SJL mice by immunization with […] (PLP) in complete Freund's adjuvant (CFA) followed by Bordetella pertussis toxin (PT). SJL mice were developed by James Lambert at The Jackson Laboratory in 1955 from three different sources of Swiss Webster mice. The strain is characterized by its susceptibility to experimental autoimmune encephalomyelitis (EAE) for multiple sclerosis research, and therefore provides an improved model (over the MOG (myelin oligodendrocyte glycoprotein) model) for assessing the therapeutic potential of compounds. Mice were treated with PBS (control) or TriDAP (100 μg/mouse) every 2 days from day 12. Clinical scores were assessed daily and body weights were recorded. Disease severity was graded as follows: grade 0: normal, grade 1: limp tail, grade 2: wobbly gait; grade 3: hind limb weakness; grade 4: hind limb paralysis; grade 5: tetraparalysis/death. † indicates control mice were sacrificed due to severity of EAE disease.

BMDC = assay: IL-12p40, IL-23, IL-12p70 and IL-10 ELISA in BMDC with p38 or ERK inhibitor, Tri-DAP and LPS or CpG; type: cell-based, murine
Experimental: BMDC (1×10^6) were pretreated with the p38 inhibitor, SB203580 (5 μM—FIGS. 10-11), or the ERK inhibitor UO126 (5 μM—FIGS. 12-13) for 30 minutes prior to stimulation with Tri-DAP (100 μg/ml) or medium alone. After 2 hours the cells were then stimulated with LPS (100 ng/ml—FIGS. 10 and 12), with the TLR agonist CpG (5 μg/ml—FIGS. 11 and 13) or with medium alone. Supernatants were collected after 24 hours and IL-12p40, IL-23, IL-12p70 and IL-10 concentrations were quantified by ELISA.

[1] = tested on: PLP-specific IL-17 and IFN-γ; assay: PLP-specific IL-17 and IFN-γ (ELISA) of restimulated lymph node or spleen cells, relapsing-remitting EAE model; type: in vivo; details: SJL mice, TriDAP 100 μg/mouse every 2 days from day 12, day 26, PLP 1-25 μg/ml
Experimental: EAE was induced in SJL mice by immunization with […] (PLP) in complete Freund's adjuvant (CFA) followed by pertussis toxin (PT). Mice were treated with PBS (control) or TriDAP (100 μg/mouse) every 2 days from day 12. Mice were sacrificed on day 26, and lymph node or spleen cells restimulated in vitro with PLP (1-25 μg/ml). After 3 days, IL-17 and IFNγ production in supernatants were quantified by ELISA.

[2] = tested on: MOG-specific IL-17, IFN-γ and TNF-α response of lymph node cells; assay: MOG-specific cytokines (ELISA) of restimulated lymph node cells after EAE induction; type: in vivo, mice; details: lymph node cells day 5
Experimental: EAE was induced in C57BL/6 mice by s.c injection with 150 μg of MOG35-55 in CFA supplemented with 4 mg/ml H37 Ra M. tuberculosis on day 0. All mice were injected i.p with PT on days 0 and 2. One group of mice were untreated, the second group were given 100 μg Tri-DAP 6 hours before immunization and a third group were given Tri-DAP (100 μg/mouse) on day 0 in MOG/CFA emulsion and again on days 1, 2 and 4. Mice were sacrificed on day 5 and lymph nodes cells were stimulated with MOG peptide (Myelin oligodendrocyte glycoprotein) (20-100 μg/ml) or as negative and positive controls, medium only or PMA and anti-CD3 respectively. After 72 hours supernatants were removed and analyzed for IL-17, TNF-α (TNF-alpha) and IFN-γ (interferon gamma) by ELISA.

[3] = tested on: antigen presenting cells (PECs) activating MOG-specific T cells; assay: IFN-γ of MOG-specific T cells cultured with irradiated PECs of treated mice as antigen presenting cells; type: in vivo; details: TriDAP 100 μg/mouse/day i.p. 5 days vs PBS; MOG 20 μg/ml; 72 hours
Experimental: Mice were treated with either PBS or TriDAP (100 μg/mouse/day i.p.) for 5 days. Peritoneal exudate stimulator cells (PECs) were irradiated and used as antigen presenting cells (APC) for MOG-specific T cells. T cells from mice immunized with MOG (Myelin oligodendrocyte glycoprotein) and CFA (1×10^6/ml) were culture with PECs (1×10^6/ml) and MOG (20 μg/ml). Supernatants were collected after 72 hours and IFN-γ concentrations were quantified by ELISA.

[4] = tested on: IL-17-expressing and IFN-γ-expressing T cells in the brains of mice with EAE; assay: Intracellular IFN-γ and IL-17 staining (flow cytometry) of brain mononuclear cells of EAE mice; type: in vivo; details: CD3+, CD3+ CD4+ and CD3+ CD4− cells; 12 days post EAE induction; PMA/ionomycin
Experimental: Mononuclear cells were isolated from the brains of control EAE or Tri-DAP treated EAE mice 12 days post EAE induction. Cells were restimulated overnight with PMA/ionomycin and incubated with Brefeldin A. Cells were stained with anti-CD3 (FIG. 4), or anti-CD3 and anti-CD4 (FIGS. 5 and 6). Cells were then fixed and permeabilized, stained intracellularly with anti-IFN-γ and anti-IL-17 and analysed by flow cytometry.

[5] = Tri-DAP 100 μg/ml pretreatment, LPS 100 ng/ml or CpG 5 μg/ml, 24 hours

Structure (SMILES): C[C@H](N)C(=O)N[C@H](CCC(=O)N[C@@H](CCC[C@@H](N)C(=O)O)C(=O)O)C(=O)O [Tri-DAP, L-alanyl-γ-D-glutamyl-meso-diaminopimelic acid]
- clinical scores (EAE in SJL mice): reduction
- LPS and CpG production of IL-12p40 (BMDC; [5]): enhances
- LPS and CpG production of IL-12p70 (BMDC; [5]): enhances
- LPS and CpG production of IL-23 (BMDC; [5]): enhances
- LPS and CpG induced IL-10 production (BMDC; Tri-DAP 100 μg/ml, LPS 100 ng/ml or CpG 5 μg/ml, 24 hours): enhanced
- enhancement of LPS and CpG induced IL-10 production when p38 is inhibited (BMDC; p38 inhibitor SB203580 5 μM): completely abolished
- synergy of Tri-DAP with LPS or CpG (IL-12 family), dependence on p38 (BMDC; p38 inhibitor SB203580 5 μM): partially dependent on p38
- PLP-specific IL-17 levels ([1]; spleen and lymph node cells): on-going reduction
- PLP-specific IFN-gamma levels ([1]; spleen cells): on-going reduction
- MOG-specific T cell responses (IL-17, IFN-γ, TNF-α) ([2]; 100 μg Tri-DAP 6 hours before immunization, vs control EAE mice): significantly reduced
- MOG-specific T cell responses (IL-17, IFN-γ, TNF-α) ([2]; Tri-DAP 100 μg/mouse on days 0, 1, 2 and 4): no detectable
- IFN-gamma secreted by antigen-specific T cells stimulated with APC of treated mice [3]: less
- IFN-γ production by brain T cells [4]: suppressed
- IL-17 production by brain T cells [4]: suppressed

— patent US20110294736A1, “COMPOUNDS AND METHODS FOR THE TREATMENT OF AUTOIMMUNE AND INFLAMMATORY DISEASE” (THE PROVOST, FELLOWS AND SCHOLARS OF THE HOLY AND UNDIVIDED …, priority 2008, published 2011)
